This is an account of results in ChEMBL document CHEMBL1126146, “Synthesis and muscarinic activity of quinuclidinyl- and (1-azanorbornyl)pyrazine derivatives” (J Med Chem, 1992).

Test [1] concerns the target T1, Muscarinic acetylcholine receptor (Rattus norvegicus) (UniProt P08482+P08483+P08485+P08911+P10980).
Description: In vitro binding affinity against cortical muscarinic acetylcholine receptor measured by displacement of [3H]NMS.
Test [2] addresses T1, Muscarinic acetylcholine receptor (Rattus norvegicus). The source holds these as a separate data set.
Description: In vitro binding affinity against cortical muscarinic acetylcholine receptor measured by displacement of [3H]OXO-M.

SMILES strings stand for the structures.

In the case of `c1ncc(C2CN3CCC2CC3)cn1` (configuration not stated), the K app in test [1] was 2.8 µM; in test [2], 0.16 µM.
In the same order, the values of `COc1cncc([C@H]2CN3CCCC2C3)n1` (some centres not stated) are 1.2 µM and 0.087 µM.
In the same order, the values of `c1cnc(C2CN3CCC2CC3)cn1` (configuration not stated) are 0.27 µM and 0.00068 µM.
For `Cc1nccnc1[C@@H]1CN2CCC1C2` (some centres not stated), in that order: 5.2 µM and 0.0016 µM.
Turning to `Clc1cncc(C2CN3CCC2CC3)n1` (configuration not stated), the K app came out at 0.051 µM in test [1] and 0.00087 µM in test [2].
For `C#CCOc1cncc(C2CN3CCC2C3)n1` (configuration not stated), in that order: 0.15 µM and 0.0088 µM.
For `c1cnc([C@@H]2CN3CCC2C3)cn1` (some centres not stated), the figures for the K app in test [1] and in test [2] were 1.6 µM and 0.0007 µM, respectively.
`Cc1ncc(C2CN3CCC2CC3)nc1C` (configuration not stated): the K app in test [1] came to 0.078 µM; in test [2] it was 0.0095 µM.
For `CN(C)c1cncc([C@@H]2CN3CCC2C3)n1` (some centres not stated), the results for the K app in test [1] and in test [2] were 0.03 µM and 0.07 µM, respectively.
For `CCc1nccnc1[C@@H]1CN2CCC1C2` (some centres not stated), the K app in test [1] stood at 2.2 µM; in test [2], 0.14 µM.
`CC(C)Oc1cncc([C@@H]2CN3CCC2C3)n1` (some centres not stated): the K app is 0.049 µM in test [1] and 0.012 µM in test [2].
Take `CCc1cncc(C2CN3CCC2C3)n1` (stereo in doubt; 27b): the results for the K app in test [1] and in test [2] were 0.15 µM and 0.0021 µM, respectively.
For the molecule `CCc1cncc(C2CN3CCC2CC3)n1` (configuration not stated), the K app stood at 0.02 µM in test [1] and 0.0017 µM in test [2].
Take `c1cnc([C@@H]2CN3CCCC2C3)cn1` (some centres not stated): the K app came to 1.5 µM in test [1] and 0.014 µM in test [2].
For `C=CCOc1cncc([C@@H]2CN3CCC2C3)n1` (some centres not stated), the values for the K app in test [1] and in test [2] were 0.12 µM and 0.021 µM, respectively.
For the molecule `C=CCOc1cncc([C@H]2CN3CCC2C3)n1` (some centres not stated), the K app in test [1] was found to be 0.23 µM; in test [2] it was 0.03 µM.
For the molecule `Cc1nccnc1[C@H]1CN2CCC1C2` (some centres not stated), the K app in test [1] is 0.21 µM; in test [2], 0.00026 µM.
As for `Cc1cnc(C)c(C2CN3CCC2CC3)n1` (configuration not stated), the K app in test [1] was 0.26 µM; in test [2], 0.026 µM.
Consider `Cc1cnc([C@@H]2CN3CCC2C3)c(C)n1` (some centres not stated), for which the K app was determined as 6.2 µM in test [1] and 0.66 µM in test [2].
For `COc1cncc([C@H]2CN3CCC2C3)n1` (some centres not stated), in that order: 0.96 µM and 0.038 µM.
For `c1cnc([C@H]2CN3CCC2C3)cn1` (some centres not stated), in that order: 0.059 µM and < 8.6e-05 µM.
As for `CC(C)c1nccnc1C1CN2CCC1C2` (configuration not stated), the K app in test [1] was determined as 0.48 µM; in test [2] it was 0.022 µM.
For the molecule `Brc1cncc(C2CN3CCC2CC3)n1` (configuration not stated), the K app in test [1] turned out to be 0.033 µM; in test [2], 0.001 µM.
For `CCCc1nccnc1C1CN2CCC1C2` (configuration not stated), the results for the K app in test [1] and in test [2] were 0.35 µM and 0.015 µM, respectively.
For `COc1cncc([C@@H]2CN3CCCC2C3)n1` (some centres not stated), the K app in test [1] worked out at 0.19 µM; in test [2], 0.0093 µM.
For `Cc1ncc([C@H]2CN3CCC2C3)nc1C` (some centres not stated), in that order: 0.28 µM and 0.015 µM.
With `Cc1cncc([C@@H]2CN3CCC2C3)n1` (some centres not stated), the K app in test [1] came to 0.47 µM; in test [2] it was 0.0015 µM.
For `Cc1cncc(C2CN3CCC2CC3)n1` (configuration not stated), the K app came out at 0.066 µM in test [1] and 0.0021 µM in test [2].
In the same order, the values of `Cc1cncc([C@H]2CN3CCC2C3)n1` (some centres not stated) are 0.18 µM and 0.0014 µM.
Turning to `CN(C)c1cncc([C@H]2CN3CCC2C3)n1` (some centres not stated), the K app turned out to be 0.86 µM in test [1] and 0.057 µM in test [2].
For `COc1cncc(C2CN3CCC2CC3)n1` (configuration not stated), the K app was 0.14 µM in test [1] and 0.0076 µM in test [2].
Molecule `Nc1noc(C2CN3CCC2C3)n1` (stereo in doubt; 3b) came in with a K app in test [2] of 0.0051 µM.
With `Oc1cncc(C2CN3CCC2CC3)n1` (configuration not stated), the figures for the K app in test [1] and in test [2] were 27 µM and 0.28 µM, respectively.
`CCc1nccnc1[C@H]1CN2CCC1C2` (some centres not stated): the K app in test [1] turned out to be 0.69 µM; in test [2], 0.02 µM.
As for `Cc1nc(C)c([C@@H]2CN3CCC2C3)nc1C` (some centres not stated), the K app turned out to be 1.6 µM in test [1] and 0.25 µM in test [2].
In the case of `Clc1cncc(C2CN3CCC2C3)n1` (configuration not stated), the K app in test [1] stood at 0.21 µM; in test [2], 0.00056 µM.
On to `c1cnc([C@H]2CN3CCCC2C3)cn1` (some centres not stated), for which the K app in test [1] stood at 0.4 µM; in test [2], 0.00084 µM.
With `Cc1ncc([C@@H]2CN3CCC2C3)nc1C` (some centres not stated), the figures for the K app in test [1] and in test [2] were 0.53 µM and 0.013 µM, respectively.
On to `CCOc1cncc(C2CN3CCC2CC3)n1` (configuration not stated), for which the K app was found to be 0.019 µM in test [1] and 0.0021 µM in test [2].
For `Cc1cnc(C)c([C@@H]2CN3CCC2C3)n1` (some centres not stated), the K app in test [1] is 3 µM; in test [2], 0.13 µM.
As for `CCc1cncc(C2CN3CCC2C3)n1` (stereo in doubt; 27a), the K app in test [1] stood at 0.13 µM; in test [2], 0.0095 µM.
Consider `Cc1ncc(C2CN3CCC2CC3)cn1` (configuration not stated), for which the K app in test [1] was found to be 1.5 µM; in test [2] it was 0.091 µM.
For `Cc1nc(C)c([C@H]2CN3CCC2C3)nc1C` (some centres not stated), in that order: 0.35 µM and 0.053 µM.
In the case of `Clc1ccc(C2CN3CCC2CC3)nn1` (configuration not stated), the K app in test [1] is 3.5 µM; in test [2], 0.098 µM.
`Cc1cnc(C)c([C@H]2CN3CCC2C3)n1` (some centres not stated): the values for the K app in test [1] and in test [2] were 0.19 µM and 0.011 µM, respectively.
`CC(C)Oc1cncc([C@H]2CN3CCC2C3)n1` (some centres not stated): the K app in test [1] stood at 0.13 µM; in test [2], 0.031 µM.
In the case of `Cc1nccnc1C1CN2CCC1CC2` (configuration not stated), the K app in test [1] amounted to 1.51 µM; in test [2], 0.01 µM.
For `Cc1cnc([C@H]2CN3CCC2C3)c(C)n1` (some centres not stated), the figures for the K app in test [1] and in test [2] were 0.75 µM and 0.017 µM, respectively.
For `COc1cncc([C@@H]2CN3CCC2C3)n1` (some centres not stated), the K app was found to be 0.46 µM in test [1] and 0.0098 µM in test [2].
